Patent US20230263822A1, “MODULATION OF FACTOR 11 EXPRESSION” (Ionis Pharmaceuticals, Inc., priority 2008, published 2023)

Tests used:
human Factor 11 mRNA = assay: Dose-dependent inhibition of human Factor 11 in HepB3 cells, electroporation (Example 7); assay type: cell-based; conditions: for percent inhibition of human Factor 11 mRNA relative to untreated control cells: ~16 hours
Experimental: The gapmers were also transfected via electroporation and their dose dependent inhibition of human Factor 11 mRNA was measured. Cells were plated at a density of 20,000 cells per well and transfected via electroporation with 41.15 nM, 123.457 nM, 370.37 nM, 1111.11 nM, 3333.33 nM, and 10,000 nM concentrations of antisense oligonucleotide, as specified in Table 15. After a treatment period of approximately 16 hours, RNA was isolated from the cells and human Factor 11 mRNA levels were measured by quantitative real-time PCR. Human Factor 11 primer probe set RTS 2966 was used to measure mRNA levels. Factor 11 mRNA levels were adjusted according to total RNA content, as measured by RIBOGREEN. Results are presented as percent inhibition of human Factor 11, relative to untreated control cells.

[1] = Tolerability in Sprague-Dawley rats: body weight and organ weight (Example 35); assay type: in vivo; conditions: 50 mg/kg s.c. twice per week for 6 weeks; for Percent change: Body weight: percent change over the weights at the start of the study; for Percent change in organ weight: Kidney / Percent change in organ weight: Liver / Percent change in organ weight: Spleen: vs saline control, normalized to body weight
Excerpt: Urine samples were taken before the start of treatment.
The body weights are presented in Table 71 and are expressed as a percent change over the weights taken at the start of the study.

Substance | IC50 (human Factor 11 mRNA) [nM] | percent inhibition of human Factor 11 mRNA relative to untreated control cells (human Factor 11 mRNA; 41.15 nM) [%] | percent inhibition of human Factor 11 mRNA relative to untreated control cells (human Factor 11 mRNA; 123.457 nM) [%] | percent inhibition of human Factor 11 mRNA relative to untreated control cells (human Factor 11 mRNA; 370.37 nM) [%] | percent inhibition of human Factor 11 mRNA relative to untreated control cells (human Factor 11 mRNA; 1111.11 nM) [%] | percent inhibition of human Factor 11 mRNA relative to untreated control cells (human Factor 11 mRNA; 3333.33 nM) [%] | percent inhibition of human Factor 11 mRNA relative to untreated control cells (human Factor 11 mRNA; 10000 nM) [%] | Percent change: Body weight [1] [%] | Percent change in organ weight: Kidney [1] | Percent change in organ weight: Liver [1] | Percent change in organ weight: Spleen [1]
416826 (antisense ATGCCCTTCATGTCTAGGTC; 5-10-5 gapmer, further chemistry not given here) [compound 416826] | 780 | 0 | 0 | 34 | 61 | 87 | 92 | −40 | +44% | +81% | +537%
416925 (antisense GGTGCACAGTTTCTGGCAGG; 3-14-3 gapmer chemistry, further chemistry not given here) [compound 416925] | 200 | 27 | 39 | 50 | 73 | 88 | 96 | −32 | +48% | +44% | +371%
416864 (antisense GGCAGCGGACGGCATTGGTG; 5-10-5 gapmer, further chemistry not given here) [compound 416864] | 2200 | 4 | 3 | 6 | 35 | 75 | 87 | −24 | +16% | +16% | +204%
416825 (antisense GCCCTTCATGTCTAGGTCCA; 5-10-5 gapmer, further chemistry not given here) [compound 416825] | 160 | 32 | 40 | 48 | 75 | 90 | 92 | −18 | +25% | +20% | +245%
